# US8957074B2 (Novartis AG, priority 2010, dated 2015)
# Where two headings read alike, the source gives them in different places.
# Key:
# [1] = system: phosphorylation of pRb at the Ser780 site in JeKo-1 mantle cell lymphoma cells; assay: CDK4 cellular assay: ELISA of pRb phosphorylation at Ser780 in JeKo-1 cells; type: cell-based; settings: Homo sapiens
# CDK1/cyclin B = CDK1/cyclin B (Homo sapiens (Human), UniProt P06493); assay: CDK1/cyclin B enzymatic activity assay (IMAP-FP); type: biochemical; settings: 100 nM Tamra Histone-H1 peptide, 20 μM ATP, 120 min at room temperature, read-out: Biochemical CDK1 enzyme IC50
# CDK1/cyclin B, sequence (P06493 whole entry, species assumed): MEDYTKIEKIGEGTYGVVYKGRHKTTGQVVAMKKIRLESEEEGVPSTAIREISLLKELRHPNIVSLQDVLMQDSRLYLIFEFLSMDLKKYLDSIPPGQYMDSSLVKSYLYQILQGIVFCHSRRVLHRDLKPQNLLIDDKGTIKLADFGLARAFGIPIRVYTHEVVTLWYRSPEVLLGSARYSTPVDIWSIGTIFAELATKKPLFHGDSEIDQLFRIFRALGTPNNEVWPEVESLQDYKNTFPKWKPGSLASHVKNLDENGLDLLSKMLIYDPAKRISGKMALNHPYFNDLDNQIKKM
# CDK1/cyclin B, sequence (P14635 whole entry partner, species assumed): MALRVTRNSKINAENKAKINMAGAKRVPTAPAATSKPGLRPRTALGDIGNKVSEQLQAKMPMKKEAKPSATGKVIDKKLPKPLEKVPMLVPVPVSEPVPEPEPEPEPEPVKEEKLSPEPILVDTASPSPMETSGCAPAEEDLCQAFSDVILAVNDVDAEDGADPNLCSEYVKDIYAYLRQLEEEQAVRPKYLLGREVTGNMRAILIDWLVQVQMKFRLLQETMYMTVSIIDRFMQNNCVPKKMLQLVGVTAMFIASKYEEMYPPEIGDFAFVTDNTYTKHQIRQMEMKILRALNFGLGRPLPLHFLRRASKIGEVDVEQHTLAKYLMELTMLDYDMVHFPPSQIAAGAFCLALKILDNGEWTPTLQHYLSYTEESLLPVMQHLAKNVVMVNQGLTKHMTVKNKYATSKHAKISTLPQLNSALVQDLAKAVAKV
# Description: CDK1/Cyclin B Enzymatic Activity Assay
# A 384-well microtiter IMAP-FP™ (Molecular Devices Trade Mark Technology) endpoint assay was used for CDK1/cyclin B kinase activity measurements. The same assay was used for IC50 determination of small molecule inhibitors.
# CDK4/cyclin D1 = CDK4/cyclin D1 (Homo sapiens (Human), UniProt P11802); assay: CDK4/cyclin D1 enzymatic activity assay (TR-FRET, phosphorylation of pRb at Ser780); type: biochemical; settings: 0.3 nM CDK4/cyclin D1, 150 nM biotin-pRb (773-924), 3 μM ATP, 60 min at 22° C.; read-out: Biochemical CDK4 enzyme IC50
# CDK4/cyclin D1, sequence (P11802 whole entry): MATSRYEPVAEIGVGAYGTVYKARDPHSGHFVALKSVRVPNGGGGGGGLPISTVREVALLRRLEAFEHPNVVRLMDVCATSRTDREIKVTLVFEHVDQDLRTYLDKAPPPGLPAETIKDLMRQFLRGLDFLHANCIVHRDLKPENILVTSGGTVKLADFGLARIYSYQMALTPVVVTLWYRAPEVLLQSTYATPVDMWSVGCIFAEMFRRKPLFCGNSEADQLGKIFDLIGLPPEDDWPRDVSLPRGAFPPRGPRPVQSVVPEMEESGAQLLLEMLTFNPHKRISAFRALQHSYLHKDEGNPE
# CDK4/cyclin D1, sequence (P24385 whole entry partner): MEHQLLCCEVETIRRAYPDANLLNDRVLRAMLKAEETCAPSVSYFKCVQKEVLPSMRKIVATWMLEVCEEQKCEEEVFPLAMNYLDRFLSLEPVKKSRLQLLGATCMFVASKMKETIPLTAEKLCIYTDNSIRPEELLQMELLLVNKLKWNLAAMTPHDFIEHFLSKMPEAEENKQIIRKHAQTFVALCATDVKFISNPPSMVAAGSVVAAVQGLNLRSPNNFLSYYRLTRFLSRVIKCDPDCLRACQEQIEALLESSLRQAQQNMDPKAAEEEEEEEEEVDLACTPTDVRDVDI
# In short: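 Phosphorylation at pRb Ser780, detected by TR-FRET, gave IC50s and kinetics. Enzyme: baculovirus/Sf21-expressed human CDK4/cyclin D1. ATP at 3 μM initiated the reaction; EDTA (pH 8.0) stopped it after 60 min at 22° C.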
# [2] = JeKo-1, JeKo-1 cells, p-pRb % inhibition adjusted with total pRb levels, read-out: Normalized cellular ppRb inhibition IC50
# [3] = JeKo-1, JeKo-1 cells, p-pRb Ser780 ELISA, non-normalized, read-out: Cellular ppRb inhibition IC50
# [4] = JeKo-1 cells, p-pRb % inhibition adjusted with total pRb levels, read-out: Normalized cellular ppRb inhibition IC50
# [5] = JeKo-1 cells, p-pRb Ser780 ELISA, non-normalized, read-out: Cellular ppRb inhibition IC50
compound,measurement,setting,value
"CN(C)C(=O)c1cc2cnc(Nc3ccc(N4CC5CCC(CC4=O)N5)cn3)nc2n1C1CCC1 (stereo not shown) [Example 134, 7-Cyclobutyl-2-[5-(4-oxo-3,9-diaza-bicyclo[4.2.1]non-3-yl)-pyridin-2-ylamino]-7H-pyrrolo[2,3-d]pyrimidine-6-carboxylic acid dimethylamide]",IC50,[1]; [2],123 nM
same,IC50,[1]; [3],66 nM
same,IC50,CDK1/cyclin B; […] CDK1/cyclin B,> 15 µM
same,IC50,CDK4/cyclin D1,8 nM
"CN(C)C(=O)c1cc2cnc(Nc3ccc(N4C[C@@H]5CC[C@H](CC4=O)N5)cn3)nc2n1C1CCC1 [Example 135, 7-Cyclobutyl-2-[5-((1S,6R)-4-oxo-3,9-diaza-bicyclo[4.2.1]non-3-yl)-pyridin-2-ylamino]-7H-pyrrolo[2,3-d]pyrimidine-6-carboxylic acid dimethylamide]",IC50,[1]; [2],38 nM
same,IC50,[1]; [3],19 nM
same,IC50,CDK1/cyclin B; […] CDK1/cyclin B,> 15 µM
same,IC50,CDK4/cyclin D1,7 nM
"CN(C)C(=O)c1cc2cnc(Nc3ccc(N4C[C@H]5CC[C@@H](CC4=O)N5)cn3)nc2n1C1CCC1 [Example 136, 7-Cyclobutyl-2-[5-((1R,6S)-4-oxo-3,9-diaza-bicyclo[4.2.1]non-3-yl)-pyridin-2-ylamino]-7H-pyrrolo[2,3-d]pyrimidine-6-carboxylic acid dimethylamide]",IC50,[1]; [2],218 nM
same,IC50,[1]; [3],77 nM
same,IC50,CDK1/cyclin B; […] CDK1/cyclin B,> 15 µM
same,IC50,CDK4/cyclin D1,54 nM
"CN(C)C(=O)c1cc2cnc(Nc3ccc(N4C[C@@H]5CC[C@H](CC4=O)N5S(C)(=O)=O)cn3)nc2n1C1CCCC1 [Example 137, 7-cyclopentyl-N,N-dimethyl-2-(5-((1S,6R)-9-(methylsulfonyl)-4-oxo-3,9-diazabicyclo[4.2.1]nonan-3-yl)pyridin-2-ylamino)-7H-pyrrolo[2,3-d]pyrimidine-6-carboxamide]",IC50,[1]; [4],150 nM
same,IC50,[1]; [5],155 nM
same,IC50,CDK1/cyclin B; […] CDK1/cyclin B,> 15 µM
same,IC50,CDK4/cyclin D1,62 nM
"CC(=O)NCC(=O)N1[C@@H]2CC[C@H]1CN(c1ccc(Nc3ncc4cc(C(=O)N(C)C)n(C5CCCC5)c4n3)nc1)C(=O)C2 [Example 138, 2-(5-((1S,6R)-9-(2-acetamidoacetyl)-4-oxo-3,9-diazabicyclo[4.2.1]nonan-3-yl)pyridin-2-ylamino)-7-cyclopentyl-N,N-dimethyl-7H-pyrrolo[2,3-d]pyrimidine-6-carboxamide]",IC50,[1]; [5],1600 nM
same,IC50,CDK1/cyclin B; […] CDK1/cyclin B,> 15 µM
same,IC50,CDK4/cyclin D1,106 nM
"CC(=O)N1[C@@H]2CC[C@H]1CN(c1ccc(Nc3ncc4cc(C(=O)N(C)C)n(C5CCCC5)c4n3)nc1)C(=O)C2 [Example 139, 2-(5-((1S,6R)-9-acetyl-4-oxo-3,9-diazabicyclo[4.2.1]nonan-3-yl)pyridin-2-ylamino)-7-cyclopentyl-N,N-dimethyl-7H-pyrrolo[2,3-d]pyrimidine-6-carboxamide]",IC50,[1]; [2],638 nM
same,IC50,[1]; [3],605 nM
same,IC50,CDK1/cyclin B; […] CDK1/cyclin B,> 15 µM
same,IC50,CDK4/cyclin D1,114 nM
"CN(C)C(=O)c1cc2cnc(Nc3ccc(N4C[C@H]5CC[C@@H](CC4=O)N5C)cn3)nc2n1C1CCCC1 [Example 140, 7-cyclopentyl-N,N-dimethyl-2-(5-((1R,6S)-9-methyl-4-oxo-3,9-diazabicyclo[4.2.1]nonan-3-yl)pyridin-2-ylamino)-7H-pyrrolo[2,3-d]pyrimidine-6-carboxamide]",IC50,[1]; [2],11 to 18 nM
same,IC50,[1]; [3],5 to 9 nM
same,IC50,CDK1/cyclin B; […] CDK1/cyclin B,> 15 µM
same,IC50,CDK4/cyclin D1,5 to 6 nM
"CN(C)C(=O)c1cc2cnc(Nc3ccc(N4C[C@@H]5CC[C@H](CC4=O)N5C)cn3)nc2n1C1CCCC1 [Example 141, 7-Cyclopentyl-2-[5-((1S,6R)-9-methyl-4-oxo-3,9-diaza-bicyclo[4.2.1]non-3-yl)-pyridin-2-ylamino]-7H-pyrrolo[2,3-d]pyrimidine-6-carboxylic acid dimethylamide]",IC50,[1]; [2],34 nM
same,IC50,[1]; [3],24 nM
same,IC50,CDK1/cyclin B; […] CDK1/cyclin B,> 15 µM
same,IC50,CDK4/cyclin D1,45 nM
"CC(C)N1[C@@H]2CC[C@H]1CN(c1ccc(Nc3ncc4cc(C(=O)N(C)C)n(C5CCCC5)c4n3)nc1)C(=O)C2 [Example 142, 7-Cyclopentyl-2-[5-((1S,6R)-9-isopropyl-4-oxo-3,9-diaza-bicyclo[4.2.1]non-3-yl)-pyridin-2-ylamino]-7H-pyrrolo[2,3-d]pyrimidine-6-carboxylic acid dimethylamide]",IC50,[1]; [4],13 nM
same,IC50,[1]; [5],6 nM
same,IC50,CDK1/cyclin B; […] CDK1/cyclin B,> 15 µM
same,IC50,CDK4/cyclin D1,34 nM
"[2H]C([2H])([2H])N1[C@@H]2CC[C@H]1CN(c1ccc(Nc3ncc4cc(C(=O)N(C)C)n(C5CCCC5)c4n3)nc1)C(=O)C2 [Example 143, 7-Cyclopentyl-2-[5-((1S,6R)-9-trideuteromethyl-4-oxo-3,9-diazabicyclo[4.2.1]non-3-yl)-pyridin-2-ylamino]-7H-pyrrolo[2,3-d]pyrimidine-6-carboxylic acid dimethylamide]",IC50,[1]; [2],251 nM
same,IC50,[1]; [3],119 nM
same,IC50,CDK1/cyclin B; 0.25 nM CDK1/cyclin B,> 15 µM
same,IC50,CDK4/cyclin D1,44 nM
"CN(C)C(=O)c1cc2cnc(Nc3ccc(N4C[C@H]5CC[C@@H](CC4=O)N5CC(F)(F)F)cn3)nc2n1C1CCCC1 [Example 144, 7-cyclopentyl-N, N-dimethyl-2-(5-((1R,6S)-4-oxo-9-(2,2,2-trifluoroethyl)-3,9-diazabicyclo[4.2.1]nonan-3-yl)pyridin-2-ylamino)-7H-pyrrolo[2,3-d]pyrimidine-6-carboxamide]",IC50,[1]; [4],49 nM
same,IC50,[1]; [5],31 nM
same,IC50,CDK1/cyclin B; […] CDK1/cyclin B,> 15 µM
same,IC50,CDK4/cyclin D1,19 nM
"CN(C)C(=O)c1cc2cnc(Nc3ccc(N4CC5COCC(CC4=O)N5)cn3)nc2n1C1CCCC1 (stereo not shown) [Example 145, 7-Cyclopentyl-2-[5-(4-oxo-8-oxa-3,10-diaza-bicyclo[4.3.1]dec-3-yl)-pyridin-2-ylamino]-7H-pyrrolo[2,3-d]pyrimidine-6-carboxylic acid dimethylamide]",IC50,[1]; [4],162 nM
same,IC50,[1]; [5],45 nM
same,IC50,CDK1/cyclin B; […] CDK1/cyclin B,> 15 µM
same,IC50,CDK4/cyclin D1,32 nM
CN(C)C(=O)c1cc2cnc(Nc3ccc(N4CCN5CCC[C@H]5C4=O)cn3)nc2n1C1CCCC1 [Example 146],IC50,[1]; [2],2900 nM
same,IC50,[1]; [3],2700 nM
same,IC50,CDK1/cyclin B; […] CDK1/cyclin B,> 15 µM
same,IC50,CDK4/cyclin D1,619 nM
CN(C)C(=O)c1cc2cnc(Nc3ccc(N4CCN5CCC[C@@H]5C4=O)cn3)nc2n1C1CCCC1 [Example 147],IC50,[1]; [2],310 nM
same,IC50,[1]; [3],257 nM
same,IC50,CDK1/cyclin B; […] CDK1/cyclin B,> 15 µM
same,IC50,CDK4/cyclin D1,27 nM
